Results reported in US20100120787A1, “MODIFICATION OF AMYLOID-BETA LOAD IN NON-BRAIN TISSUE” (MODGENE, LLC, priority 2008, published 2010).
Like-named read-outs stand apart in the source and are kept apart here.

How the values were obtained:
[1] = test system: primary neurons prepared from cerebral cortex; details: embryonic day 18 rats; cited from earlier work
Aβ accumulation in brain = details: intrathecal delivery by osmotic minipumps, guinea pigs; cited from earlier work
Notch signaling = details: while reducing Aβ production; cited from earlier work
[2] = pH 8; cited from earlier work
[3] = humans; cited from earlier work
[4] = cited from earlier work
Aβ hexamers in plasma = experiment: Plasma (blood) Aβ levels in mice after intraperitoneal STI-571, Western blot/ELISA; assay type: in vivo, mouse
Procedure: […]. Wild-type C57Bl/6 and DBA/2J male mice (age 8-12 weeks) were administered drug or vehicle twice daily for 7 days by intraperitoneal injection. […]. […] See, for example, Gleevec Prescribing Information 2003 revision T2003-09; Printed in U.S.A. 89019001 (Novartis), incorporated herein by reference.
Animals were sacrificed 12 hr after the last injection. Individual mice were anesthetized with isoflurane and blood samples (100-300ul) taken by cardiac puncture with heparinized syringes. Samples were placed on ice for 30 minutes in the presence of EDTA and then centrifuged for 20 minutes at 16,000×g at 4° C. The plasma fraction was removed and stored at −80° C. Brains were removed and frozen rapidly on dry ice and stored at −80° C.
Detection of mouse Aβ1-40 in blood and brain samples was performed by using a commercially available immunoassay kit (Biosource mouse Aβ1-40, Catalog No. KMB3481, Invitrogen, Carlsbad, Calif.) or by Western blot. Mouse brain samples were prepared by homogenizing brain tissue in a polytron in the presence of 5M guanidine HCl and 50 mM Tris HCl, pH 8.0 as described in the assay protocol. […]
Blood samples were diluted 1:5 in standard diluent buffer. Samples were assayed in duplicate and OD450 measured on a Tecan infinite 2000 plate reader. […]

[5] = statement in words, cited from earlier work
[6] = cited from earlier work; remark: listed apart in the source

Molecule: 6-(2,6-dichlorophenyl)-8-methyl-2-(methylsulfanylphenyl-amino)-8H-pyrido[2,3-d]pyrimidin-7-one [inhibitor 2]
- production of Aβ [1]: reduce production of Aβ
- Aβ accumulation in brain (Aβ accumulation in brain): decrease in Aβ accumulation in brain
- effect on Notch signaling (Notch signaling): without affecting Notch signaling

Molecule: COc1cc([S+](C)[O-])ccc1-c1nc2ncccc2[nH]1 (centres unmarked) [ARL115, sulmazole]
- log P [2]: 1.17
- CNS side effects [3]: lack the CNS side effects

Molecule: COc1ccc(-c2nc3ncccc3[nH]2)c(OC)c1.Cl [ARL-57]
- log P [2]: 2.59
- CNS side effects [3]: spectacular bright color vision

Molecule: Cc1ccc(NC(=O)c2ccc(CN3CCNCC3)cc2)cc1Nc1nccc(-c2cccnc2)n1 [N-desmethyl derivative]
- plasma AUC of metabolite relative to the AUC for imatinib ([4]; humans): about 15%
- elimination half-life ([4]; oral administration in healthy volunteers): ~40 h

Molecule: Cc1ccc(NC(=O)c2ccc(CN3CCN(C)CC3)cc2)cc1Nc1nccc(-c2cccnc2)n1 [STI-571]
- reduction of plasma levels of Aβ (Aβ hexamers in plasma; 20 mg/kg IP twice daily for 7 days, B6 mice): approximately 50%
- reduction of circulating Aβ (Aβ hexamers in plasma; highest dose (100 mg/kg) IP twice daily for 7 days, young D2 mice): approximately 75%
- penetration of the blood-brain barrier [5]: poor penetration of the blood-brain barrier
- penetration of the blood-brain barrier ([5]; listed as GLEEVEC/STI-571): poor penetration of the blood-brain barrier
- penetration of the blood-brain barrier ([5]; listed as imatinib): does not substantially penetrate the blood brain barrier
- absorption after oral administration ([6]; human, in vivo, po): rapidly absorbed
- mean AUC versus dose ([6]; human, in vivo): did not increase proportionally with increasing dose
- Cmax (time) ([6]; pediatric patients, oral): 2 to 4 h
